Reference: PubChem BioAssay (NCI)
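Step 1: Grow cells in 96-well plates. Step 2: Expose to compound for 48 hours at 5 concentrations. Step 3: Interpolate endpoints linearly; if unreached, use highest concentration. Abbreviation: GI50, concentration required for 50% inhibition of growth. TGI: concentration producing complete growth inhibition.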

Key:
Assay in all cases: NCI-60 cell line screen, 48 h
[1] = test system: 786-0 renal
[2] = test system: A498 renal
[3] = test system: A549 NSCLC
[4] = test system: ACHN renal
[5] = test system: BT-549 breast
[6] = test system: CAKI-1 renal
[7] = test system: CCRF-CEM leukemia
[8] = test system: COLO 205 colon
[9] = test system: DU-145 prostate
[10] = test system: EKVX NSCLC
[11] = test system: HCC-2998 colon
[12] = test system: HCT-116 colon
[13] = test system: HCT-15 colon
[14] = test system: HL-60(TB) leukemia
[15] = test system: HOP-62 NSCLC
[16] = test system: HOP-92 NSCLC
[17] = test system: HS 578T breast
[18] = test system: HT29 colon
[19] = test system: IGROV1 ovarian
[20] = test system: K-562 leukemia
[21] = test system: KM12 colon
[22] = test system: LOX IMVI melanoma
[23] = test system: M14 melanoma
[24] = test system: MALME-3M melanoma
[25] = test system: MCF7 breast
[26] = test system: MDA-MB-231 breast
[27] = test system: MDA-MB-435
[28] = test system: MDA-MB-468 breast
[29] = test system: MOLT-4 leukemia
[30] = test system: NCI-H226 lung
[31] = test system: NCI-H23 lung
[32] = test system: NCI-H460 lung
[33] = test system: NCI-H522 lung
[34] = test system: NCI/ADR-RES ovarian
[35] = test system: OVCAR-3 ovarian
[36] = test system: OVCAR-4 ovarian
[37] = test system: OVCAR-5 ovarian
[38] = test system: OVCAR-8 ovarian
[39] = test system: PC-3 prostate
[40] = test system: RPMI-8226 leukemia
[41] = test system: RXF 393 renal
[42] = test system: SF-268 CNS
[43] = test system: SF-295 CNS
[44] = test system: SF-539 CNS
[45] = test system: SK-MEL-2 melanoma
[46] = test system: SK-MEL-28 melanoma
[47] = test system: SK-MEL-5 melanoma
[48] = test system: SK-OV-3 ovarian
[49] = test system: SN12C renal
[50] = test system: SNB-19 CNS
[51] = test system: SNB-75 CNS
[52] = test system: SR leukemia
[53] = test system: SW-620 colon
[54] = test system: T-47D breast
[55] = test system: TK-10 renal
[56] = test system: U251 CNS
[57] = test system: UACC-257 melanoma
[58] = test system: UACC-62 melanoma
[59] = test system: UO-31 renal

## COC(=O)c1c(C(=O)OC)c2ccc3c4ccccc4ccc3n2c1C(=O)C(C)Br (centres undefined)
[1]
  GI50: 21.1 µM
  TGI: > 100 µM
[2]
  GI50: 88.1 µM
  TGI: > 100 µM
[3]
  GI50: 42.2 µM
  TGI: > 100 µM
[4]
  GI50: 22.2 µM
  TGI: > 100 µM
[5]
  GI50: 6.18 µM
  TGI: 40.2 µM
[6]
  GI50: 21.2 µM
  TGI: > 100 µM
[7]
  GI50: 3.92 µM
  TGI: > 100 µM
[8]
  GI50: 38.8 µM
  TGI: > 100 µM
[9]
  GI50: > 100 µM
  TGI: > 100 µM
[10]
  GI50: 42.4 µM
  TGI: > 100 µM
[11]
  GI50: 39.9 µM
  TGI: > 100 µM
[12]
  GI50: 11 µM
  TGI: > 100 µM
[13]
  GI50: 6.17 µM
  TGI: 30.3 µM
[14]
  GI50: 5.39 µM
  TGI: > 100 µM
[15]
  GI50: 33.1 µM
  TGI: > 100 µM
[16]
  GI50: 15.2 µM
  TGI: > 100 µM
[17]
  GI50: 18.8 µM
  TGI: 92.7 µM
[18]
  GI50: 20.6 µM
  TGI: > 100 µM
[19]
  GI50: 33.2 µM
  TGI: > 100 µM
[20]
  GI50: 6.48 µM
  TGI: > 100 µM
[21]
  GI50: > 100 µM
  TGI: > 100 µM
[22]
  GI50: 4.35 µM
  TGI: 23.7 µM
[23]
  GI50: 31.3 µM
  TGI: > 100 µM
[24]
  GI50: 6.1 µM
  TGI: 43 µM
[25]
  GI50: 4.58 µM
  TGI: > 100 µM
[26]
  GI50: 4.72 µM
  TGI: 35.8 µM
[27]
  GI50: 16.1 µM
  TGI: > 100 µM
[28]
  GI50: 13.2 µM
  TGI: 52.4 µM
[29]
  GI50: 3.3 µM
  TGI: > 100 µM
[30]
  GI50: 25.6 µM
  TGI: > 100 µM
[31]
  GI50: 12.9 µM
  TGI: > 100 µM
[32]
  GI50: 17.8 µM
  TGI: > 100 µM
[33]
  GI50: 3.07 µM
  TGI: 15.2 µM
[34]
  GI50: 17.7 µM
  TGI: > 100 µM
[35]
  GI50: 16.9 µM
  TGI: > 100 µM
[36]
  GI50: 25.6 µM
  TGI: > 100 µM
[37]
  GI50: 22.5 µM
  TGI: > 100 µM
[38]
  GI50: 14.9 µM
  TGI: > 100 µM
[39]
  GI50: 17.8 µM
  TGI: > 100 µM
[40]
  GI50: 7.43 µM
  TGI: 48.1 µM
[41]
  GI50: 2.79 µM
  TGI: 36.7 µM
[42]
  GI50: 34.4 µM
  TGI: > 100 µM
[43]
  GI50: 28.3 µM
  TGI: > 100 µM
[44]
  GI50: 10.9 µM
  TGI: 25.6 µM
[45]
  GI50: 17.9 µM
  TGI: 94.1 µM
[46]
  GI50: 25.7 µM
  TGI: > 100 µM
[47]
  GI50: 13 µM
  TGI: 46.8 µM
[48]
  GI50: > 100 µM
  TGI: > 100 µM
[49]
  GI50: 17.2 µM
  TGI: > 100 µM
[50]
  GI50: 51.5 µM
  TGI: > 100 µM
[51]
  GI50: 24.7 µM
  TGI: > 100 µM
[52]
  GI50: 5.87 µM
  TGI: > 100 µM
[53]
  GI50: 7.26 µM
  TGI: 58.3 µM
[54]
  GI50: 11.5 µM
  TGI: > 100 µM
[55]
  GI50: 76.3 µM
  TGI: > 100 µM
[56]
  GI50: 18.3 µM
  TGI: > 100 µM
[57]
  GI50: 44.2 µM
  TGI: > 100 µM
[58]
  GI50: 11.9 µM
  TGI: > 100 µM
[59]
  GI50: 24.9 µM
  TGI: > 100 µM

## C=C1CC[C@@H]2[C@]3(C)COC(c4ccco4)O[C@@H]3CC[C@@]2(C)[C@@H]1C/C=C1/C(=O)OCC1OC(C)=O (some centres undefined)
[1]
  GI50: 18 µM
  TGI: 32.8 µM
[2]
  GI50: > 100 µM
  TGI: > 100 µM
[3]
  GI50: 28.2 µM
  TGI: > 100 µM
[4]
  GI50: 14.9 µM
  TGI: 28.8 µM
[5]
  GI50: 15 µM
  TGI: 29.1 µM
[6]
  GI50: 15.8 µM
  TGI: 32.2 µM
[7]
  GI50: 2.56 µM
  TGI: 9.9 µM
[8]
  GI50: 16 µM
  TGI: 31.3 µM
[9]
  GI50: 15.2 µM
  TGI: 29.5 µM
[10]
  GI50: 14.5 µM
  TGI: 31.4 µM
[11]
  GI50: 16.8 µM
  TGI: 31.4 µM
[12]
  GI50: 10.8 µM
  TGI: 26 µM
[13]
  GI50: 15.6 µM
  TGI: 38.4 µM
[14]
  GI50: 9.35 µM
  TGI: 85.6 µM
[15]
  GI50: 21.8 µM
  TGI: 55.7 µM
[16]
  GI50: 12.3 µM
  TGI: 45.2 µM
[17]
  GI50: 26.1 µM
  TGI: > 100 µM
[18]
  GI50: 13.8 µM
  TGI: 30.7 µM
[19]
  GI50: 16.5 µM
  TGI: 34.2 µM
[20]
  GI50: 5.84 µM
  TGI: > 100 µM
[21]
  GI50: 21.7 µM
  TGI: 68.7 µM
[22]
  GI50: 11.8 µM
  TGI: 24.1 µM
[23]
  GI50: 16.3 µM
  TGI: 34.2 µM
[24]
  GI50: 14.7 µM
  TGI: 29.3 µM
[25]
  GI50: 12.4 µM
  TGI: 32.4 µM
[26]
  GI50: 15 µM
  TGI: 30.9 µM
[27]
  GI50: 15.6 µM
  TGI: 37 µM
[28]
  GI50: 13.4 µM
  TGI: 26.6 µM
[29]
  GI50: 19.6 µM
  TGI: > 100 µM
[30]
  GI50: 16.6 µM
  TGI: 35.1 µM
[31]
  GI50: 17.6 µM
  TGI: 35.2 µM
[32]
  GI50: 18.2 µM
  TGI: 38.6 µM
[33]
  GI50: 13.6 µM
  TGI: 26.7 µM
[34]
  GI50: 17 µM
  TGI: 38 µM
[35]
  GI50: 10.8 µM
  TGI: 26.6 µM
[36]
  GI50: 13.5 µM
  TGI: 38.4 µM
[37]
  GI50: 17.6 µM
  TGI: 31.9 µM
[38]
  GI50: 12.8 µM
  TGI: 28.7 µM
[39]
  GI50: 13.2 µM
  TGI: 39.6 µM
[40]
  GI50: 3.11 µM
  TGI: 38.1 µM
[41]
  GI50: 11.1 µM
  TGI: 24.9 µM
[42]
  GI50: 27.9 µM
  TGI: > 100 µM
[43]
  GI50: 25.9 µM
  TGI: > 100 µM
[44]
  GI50: 14 µM
  TGI: 27 µM
[45]
  GI50: 14.6 µM
  TGI: 29 µM
[46]
  GI50: 15.7 µM
  TGI: 29.7 µM
[47]
  GI50: 15.8 µM
  TGI: 31.3 µM
[48]
  GI50: 57.7 µM
  TGI: > 100 µM
[49]
  GI50: 14.4 µM
  TGI: 30.6 µM
[50]
  GI50: 25.3 µM
  TGI: 84.2 µM
[51]
  GI50: 5.83 µM
  TGI: 49.6 µM
[53]
  GI50: 9.77 µM
  TGI: 23.8 µM
[54]
  GI50: 18.6 µM
  TGI: 55.1 µM
[55]
  GI50: 25.9 µM
  TGI: 62.4 µM
[56]
  GI50: 15.2 µM
  TGI: 28.6 µM
[57]
  GI50: 15.5 µM
  TGI: 32.8 µM
[58]
  GI50: 13.6 µM
  TGI: 28.8 µM
[59]
  GI50: 13.2 µM
  TGI: 26 µM
